Measurements taken from US20240239861A1, “GLUCAGON-RECEPTOR SELECTIVE POLYPEPTIDES AND METHODS OF USE THEREOF” (i2O Therapeutics, Inc., priority 2016, published 2024).
Where a SMILES comes first, the peptide text is derived from it. [ ]: non-standard residue; d: D form. Aib = CC(C)(N)C(=O)O

What was measured:
human GCGR = human GCGR (Homo sapiens, UniProt P47871); assay: Peptide-receptor mediated cAMP accumulation (LANCE Ultra cAMP) in CHO-K1 cells transfected with human GCGR; assay type: cell-based; conditions: for EC50: Table 3
human GLP-1R = human GLP-1R (Homo sapiens, UniProt P43220); assay: Peptide-receptor mediated cAMP accumulation (LANCE Ultra cAMP) in CHO-K1 cells transfected with human GLP-1R; assay type: cell-based; conditions: hGLP1 pEC50 (cAMP mean (n = 3): 11 point curve starting at 1 nM, Table 3)
Chain of human GLP-1R (P43220 24-463): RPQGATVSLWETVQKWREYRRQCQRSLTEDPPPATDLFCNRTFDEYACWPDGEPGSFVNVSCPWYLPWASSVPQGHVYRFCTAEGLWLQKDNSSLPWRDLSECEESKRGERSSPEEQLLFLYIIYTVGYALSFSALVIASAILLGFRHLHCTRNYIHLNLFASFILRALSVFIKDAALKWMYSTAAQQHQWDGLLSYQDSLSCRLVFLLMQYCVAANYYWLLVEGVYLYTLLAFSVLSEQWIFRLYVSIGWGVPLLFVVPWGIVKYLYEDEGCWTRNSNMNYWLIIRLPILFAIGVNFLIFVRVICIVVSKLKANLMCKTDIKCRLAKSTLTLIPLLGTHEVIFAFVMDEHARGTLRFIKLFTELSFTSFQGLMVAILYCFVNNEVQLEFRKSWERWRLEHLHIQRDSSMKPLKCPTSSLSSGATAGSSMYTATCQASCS

Row | Compound | EC50 (human GCGR) [pM] | EC50 (human GLP-1R) [pM] | activation profile at the human glucagon receptor (GCGR) (human GCGR; FIG. 1A)
1 | CC(C)C[C@H](NC(=O)[C@H](Cc1ccc(O)cc1)NC(=O)[C@H](CCCCN)NC(=O)[C@H](CO)NC(=O)[C@H](Cc1ccc(O)cc1)NC(=O)[C@H](CC(=O)O)NC(=O)[C@H](CO)NC(=O)[C@@H](NC(=O)[C@H](Cc1ccccc1)NC(=O)[C@@H](NC(=O)CNC(=O)[C@H](Cc1c[nH]cn1)NC(=O)[C@H](CO)NC(=O)[C@@H](N)Cc1ccc(O)cc1)[C@@H](C)O)[C@@H](C)O)C(=O)N[C@@H](CC(=O)O)C(=O)NC(C)(C)C(=O)N[C@@H](CCCCN)C(=O)N[C@@H](CCCNC(=N)N)C(=O)N[C@@H](C)C(=O)N[C@@H](CCC(N)=O)C(=O)N[C@@H](CCC(=O)O)C(=O)N[C@@H](Cc1ccccc1)C(=O)N[C@H](C(=O)NC(C)(C)C(=O)N[C@@H](Cc1c[nH]c2ccccc12)C(=O)N[C@@H](CC(C)C)C(=O)N[C@@H](CCC(=O)O)C(=O)N[C@@H](CC(=O)O)C(=O)N[C@@H](CCC(=O)O)C(=O)N[C@@H](CCC(=O)O)C(=O)N1CCC[C@H]1C(=O)N[C@@H](CO)C(=O)N[C@@H](CO)C(=O)NCC(=O)N[C@@H](C)C(=O)N1CCC[C@H]1C(=O)N1CCC[C@H]1C(=O)N1CCC[C@H]1C(=O)N[C@@H](CO)C(=O)O)C(C)C [Compound A10] (H-YSHGTFTSDYSKYLD[Aib]KRAQEFV[Aib]WLEDEEPSSGAPPPS-OH; N-terminus assumed) | 5.01 | > 1000 | 
2 | CC(C)C[C@H](NC(=O)[C@H](Cc1ccc(O)cc1)NC(=O)[C@H](CCCCN)NC(=O)[C@H](CO)NC(=O)[C@H](Cc1ccc(O)cc1)NC(=O)[C@H](CC(=O)O)NC(=O)[C@H](CO)NC(=O)[C@@H](NC(=O)[C@H](Cc1ccccc1)NC(=O)[C@@H](NC(=O)CNC(=O)[C@H](Cc1c[nH]cn1)NC(=O)[C@H](CO)NC(=O)[C@@H](N)Cc1ccc(O)cc1)[C@@H](C)O)[C@@H](C)O)C(=O)N[C@@H](CC(=O)O)C(=O)NC(C)(C)C(=O)N[C@@H](CCCCN)C(=O)N[C@@H](CCCNC(=N)N)C(=O)N[C@@H](C)C(=O)N[C@@H](CCC(N)=O)C(=O)N[C@@H](CCC(=O)O)C(=O)N[C@@H](Cc1ccccc1)C(=O)N[C@H](C(=O)NC(C)(C)C(=O)N[C@@H](Cc1c[nH]c2ccccc12)C(=O)N[C@@H](CC(C)C)C(=O)N[C@@H](CCC(=O)O)C(=O)N[C@@H](CC(=O)O)C(=O)N[C@@H](CCC(=O)O)C(=O)N[C@@H](CCC(=O)O)C(=O)N[C@@H](CCC(=O)O)C(=O)N1CCC[C@H]1C(=O)N[C@@H](CO)C(=O)N[C@@H](CO)C(=O)NCC(=O)N[C@@H](C)C(=O)N1CCC[C@H]1C(=O)N1CCC[C@H]1C(=O)N1CCC[C@H]1C(=O)N[C@@H](CO)C(=O)O)C(C)C [Compound A11] (H-YSHGTFTSDYSKYLD[Aib]KRAQEFV[Aib]WLEDEEEPSSGAPPPS-OH; N-terminus assumed) | 6.31 | > 1000 | 
3 | CC(C)C[C@H](NC(=O)[C@H](Cc1ccc(O)cc1)NC(=O)[C@H](CCCCN)NC(=O)[C@H](CO)NC(=O)[C@H](Cc1ccc(O)cc1)NC(=O)[C@H](CC(=O)O)NC(=O)[C@H](CO)NC(=O)[C@@H](NC(=O)[C@H](Cc1ccccc1)NC(=O)[C@@H](NC(=O)CNC(=O)[C@H](Cc1c[nH]cn1)NC(=O)[C@H](CO)NC(=O)[C@@H](N)Cc1ccc(O)cc1)[C@@H](C)O)[C@@H](C)O)C(=O)N[C@@H](CC(=O)O)C(=O)NC(C)(C)C(=O)N[C@@H](CCCCN)C(=O)N[C@@H](CCCNC(=N)N)C(=O)N[C@@H](C)C(=O)N[C@@H](CCC(N)=O)C(=O)N[C@@H](CCC(=O)O)C(=O)N[C@@H](Cc1ccccc1)C(=O)N[C@H](C(=O)NC(C)(C)C(=O)N[C@@H](Cc1c[nH]c2ccccc12)C(=O)N[C@@H](CC(C)C)C(=O)N[C@@H](CCC(=O)O)C(=O)N[C@@H](CC(=O)O)C(=O)N[C@@H](CCC(=O)O)C(=O)N[C@@H](CO)C(=O)N[C@@H](CO)C(=O)NCC(=O)N[C@@H](C)C(=O)N1CCC[C@H]1C(=O)N1CCC[C@H]1C(=O)N1CCC[C@H]1C(=O)N[C@@H](CO)C(=O)O)C(C)C [Compound A14] (H-YSHGTFTSDYSKYLD[Aib]KRAQEFV[Aib]WLEDESSGAPPPS-OH; N-terminus assumed) | 1 | > 1000 | 
4 | CC(C)C[C@H](NC(=O)[C@H](Cc1ccc(O)cc1)NC(=O)[C@H](CCCCN)NC(=O)[C@H](CO)NC(=O)[C@H](Cc1ccc(O)cc1)NC(=O)[C@H](CC(=O)O)NC(=O)[C@H](CO)NC(=O)[C@@H](NC(=O)[C@H](Cc1ccccc1)NC(=O)[C@@H](NC(=O)CNC(=O)[C@H](Cc1c[nH]cn1)NC(=O)[C@H](CO)NC(=O)[C@@H](N)Cc1ccc(O)cc1)[C@@H](C)O)[C@@H](C)O)C(=O)N[C@@H](CC(=O)O)C(=O)NC(C)(C)C(=O)N[C@@H](CO)C(=O)N[C@@H](CCCNC(=N)N)C(=O)N[C@@H](C)C(=O)N[C@@H](CCC(N)=O)C(=O)N[C@@H](CCC(=O)O)C(=O)N[C@@H](Cc1ccccc1)C(=O)N[C@H](C(=O)NC(C)(C)C(=O)N[C@@H](Cc1c[nH]c2ccccc12)C(=O)N[C@@H](CC(C)C)C(=O)N[C@@H](CCC(=O)O)C(=O)N[C@@H](CC(=O)O)C(=O)N[C@@H](CCC(=O)O)C(=O)N1CCC[C@H]1C(=O)N[C@@H](CO)C(=O)N[C@@H](CO)C(=O)NCC(=O)N[C@@H](C)C(=O)N1CCC[C@H]1C(=O)N1CCC[C@H]1C(=O)N1CCC[C@H]1C(=O)N[C@@H](CO)C(=O)O)C(C)C [Compound A15] (H-YSHGTFTSDYSKYLD[Aib]SRAQEFV[Aib]WLEDEPSSGAPPPS-OH; N-terminus assumed) | 3.98 | > 1000 | 
5 | CC(C)C[C@H](NC(=O)[C@H](Cc1ccc(O)cc1)NC(=O)[C@H](CCCCN)NC(=O)[C@H](CO)NC(=O)[C@H](Cc1ccc(O)cc1)NC(=O)[C@H](CC(=O)O)NC(=O)[C@H](CO)NC(=O)[C@@H](NC(=O)[C@H](Cc1ccccc1)NC(=O)[C@@H](NC(=O)CNC(=O)[C@H](Cc1c[nH]cn1)NC(=O)[C@H](CO)NC(=O)[C@@H](N)Cc1ccc(O)cc1)[C@@H](C)O)[C@@H](C)O)C(=O)N[C@@H](CC(=O)O)C(=O)NC(C)(C)C(=O)N[C@H](C(=O)N[C@@H](CCCNC(=N)N)C(=O)N[C@@H](C)C(=O)N[C@@H](CCC(N)=O)C(=O)N[C@@H](CCC(=O)O)C(=O)N[C@@H](Cc1ccccc1)C(=O)N[C@H](C(=O)NC(C)(C)C(=O)N[C@@H](Cc1c[nH]c2ccccc12)C(=O)N[C@@H](CC(C)C)C(=O)N[C@@H](CCC(=O)O)C(=O)N[C@@H](CC(=O)O)C(=O)N[C@@H](CCC(=O)O)C(=O)N1CCC[C@H]1C(=O)N[C@@H](CO)C(=O)N[C@@H](CO)C(=O)NCC(=O)N[C@@H](C)C(=O)N1CCC[C@H]1C(=O)N1CCC[C@H]1C(=O)N1CCC[C@H]1C(=O)N[C@@H](CO)C(=O)O)C(C)C)[C@@H](C)O [Compound A16] (H-YSHGTFTSDYSKYLD[Aib]TRAQEFV[Aib]WLEDEPSSGAPPPS-OH; N-terminus assumed) | 1.26 | > 1000 | 
6 | CC(C)C[C@H](NC(=O)[C@H](Cc1ccc(O)cc1)NC(=O)[C@H](CCCCN)NC(=O)[C@H](CO)NC(=O)[C@H](Cc1ccc(O)cc1)NC(=O)[C@H](CC(=O)O)NC(=O)[C@H](CO)NC(=O)[C@@H](NC(=O)[C@H](Cc1ccccc1)NC(=O)[C@@H](NC(=O)CNC(=O)[C@H](Cc1c[nH]cn1)NC(=O)[C@H](CO)NC(=O)[C@@H](N)Cc1ccc(O)cc1)[C@@H](C)O)[C@@H](C)O)C(=O)N[C@@H](CC(=O)O)C(=O)NC(C)(C)C(=O)N[C@@H](CCCCN)C(=O)N[C@@H](C)C(=O)N[C@@H](C)C(=O)N[C@@H](CCC(N)=O)C(=O)N[C@@H](CCC(=O)O)C(=O)N[C@@H](Cc1ccccc1)C(=O)N[C@H](C(=O)NC(C)(C)C(=O)N[C@@H](Cc1c[nH]c2ccccc12)C(=O)N[C@@H](CC(C)C)C(=O)N[C@@H](CCC(=O)O)C(=O)N[C@@H](CC(=O)O)C(=O)N[C@@H](CCC(=O)O)C(=O)N1CCC[C@H]1C(=O)N[C@@H](CO)C(=O)N[C@@H](CO)C(=O)NCC(=O)N[C@@H](CCCCN)C(=O)N1CCC[C@H]1C(=O)N1CCC[C@H]1C(=O)N1CCC[C@H]1C(=O)N[C@@H](CO)C(=O)O)C(C)C [Compound A90] (H-YSHGTFTSDYSKYLD[Aib]KAAQEFV[Aib]WLEDEPSSGKPPPS-OH; N-terminus assumed) |  | > 1000 | 
7 | CC(C)C[C@H](NC(=O)[C@H](Cc1ccc(O)cc1)NC(=O)[C@H](CCCCN)NC(=O)[C@H](CO)NC(=O)[C@H](Cc1ccc(O)cc1)NC(=O)[C@H](CC(=O)O)NC(=O)[C@H](CO)NC(=O)[C@@H](NC(=O)[C@H](Cc1ccccc1)NC(=O)[C@@H](NC(=O)CNC(=O)[C@H](CCC(N)=O)NC(=O)[C@H](CO)NC(=O)[C@@H](N)Cc1ccc(O)cc1)[C@@H](C)O)[C@@H](C)O)C(=O)N[C@@H](CC(=O)O)C(=O)NC(C)(C)C(=O)N[C@@H](CCCCN)C(=O)N[C@@H](C)C(=O)N[C@@H](C)C(=O)N[C@@H](CCC(N)=O)C(=O)N[C@@H](CCC(=O)O)C(=O)N[C@@H](Cc1ccccc1)C(=O)N[C@H](C(=O)NC(C)(C)C(=O)N[C@@H](Cc1c[nH]c2ccccc12)C(=O)N[C@@H](CC(C)C)C(=O)N[C@@H](CCC(=O)O)C(=O)N[C@@H](CC(=O)O)C(=O)N[C@@H](CCC(=O)O)C(=O)N1CCC[C@H]1C(=O)N[C@@H](CO)C(=O)N[C@@H](CO)C(=O)NCC(=O)N[C@@H](CCCCN)C(=O)N1CCC[C@H]1C(=O)N1CCC[C@H]1C(=O)N1CCC[C@H]1C(=O)N[C@@H](CO)C(=O)O)C(C)C [Compound A96] (H-YSQGTFTSDYSKYLD[Aib]KAAQEFV[Aib]WLEDEPSSGKPPPS-OH; N-terminus assumed) |  | > 1000 | 
8 | GLP-1 (7-37): form of glucagon-like peptide-1 used as comparator in the receptor activation profiles of FIG. 1 [reference compound] |  |  | much lower potency
